Test results reported in patent US20130030055A1, “COMPOSITIONS AND METHODS FOR TREATING HAIR LOSS, HAIR THINNING, AND HAIR COLOR LOSS” (priority 2010, published 2013).

Experiments:
Format in all cases: in vivo, human
[1] = Open-label study: intraocular pressure measurements
Excerpt: (§1) Subjects were instructed to apply bimatoprost 0.03% to the eyelid lash line once daily for 12 weeks using an applicator (Studio Basics Professional Tools Eye Applicators, Paris Presents Incorporated, Gumee, Ill.) for each upper eyelid each evening and, if necessary, to wipe the areas immediately around the eyelid afterward to remove excess medication. Periodic use of artificial tears was allowed, but only prior to administration of bimatoprost 0.03%.
(§2) Clinical Examinations. Assessments were conducted at baseline and at weekly study visits at weeks 1, 4, 8, 12 (end of treatment period), and 16 (post-treatment follow-up period). At each visit, subjects underwent a complete eye examination by an ophthalmologist that included intraocular pressure measurements, visual acuity, and biomicroscopy. Subjects were queried at each visit for adverse events and these were recorded by the investigator. The presence of periorbital darkening was noted and graded on a scale of 0 to 4, and adverse event data were collected at each visit during the treatment period.
(§3) Statistical Analyses. A 2-sided paired t-test was used to evaluate the intraocular pressure change from baseline, and the GEA change from week 1 to week 12 was compared using a Wilcoxon signed-rank test. Analysis of intraocular pressure was performed on a per-eye and per-subject basis. A significance level of 0.05 was used for all statistical tests. Categorical variables were summarized with frequency, count, and percentages.

[2] = Randomized vehicle-controlled study: adverse events
Protocol: Safety measurements collected during this study included adverse events, ophthalmic examination variables (iris color, IOP, visual acuity, biomicroscopy, and ophthalmoscopy), physical examination, vital signs, and pregnancy testing.
Safety data (adverse events, ophthalmic examination variables, physical examination, and vital signs variables) were summarized by descriptive statistics and/or frequency tables and were analyzed by appropriate nonparametric statistical methods (Pearson's chi-square test, Wilcoxon rank sum test) and/or parametric tests (ANOVA, t-test). The safety analyses were based on the safety population. No data imputation for missing visits or values was performed.

eyelashes [3] = experiment: Open-label study of bimatoprost 0.03% on eyelid lash line: photographic Global Eyelash Assessment (GEA)
Protocol: To assess the safety, efficacy, and subjective experience of using dermal application of bimatoprost 0.03% for the growth of natural eyelashes and as described herein hair in at least one eyebrow region, a prospective, open-label study of subjects who desired longer, thicker (fuller), and darker natural eyelashes was conducted.
This was a prospective, open-label study of subjects who wanted to grow more prominent eyelashes. […] The protocol was in compliance with the Declaration of Helsinki and in accordance with applicable Institutional Review Board regulations approved Aug. 28, 2005. Study subjects gave informed consent prior to initiation of any study-related procedures.
as §1
Photographic Documentation and Analysis. Frontal-(with eyes open) and side-view photographs were taken of the subjects' eyes at each visit; frontal-view images with eyes closed were taken starting at week 1. The photographic assessment planned as a primary a priori endpoint was a dynamic measure assessing change at each visit from baseline photos. The dynamic scale of global change in increased length, thickness, pigmentation, and number of lashes was +0=no change, +½=little change, +1=mild noticeable change, +2=moderate notable change, and +3=major very notable change. A static photographic assessment was calculated. Photographs from subjects who had frontal eyes-closed images available from weeks 1 and 12 were evaluated in a post hoc analysis and scored independently by 2 raters using a validated Global Eyelash Assessment (GEA) scale, designed to objectively evaluate the quality of a subject's eyelashes. One evaluator was a physician and the other was a health outcomes researcher employed by the study sponsor. In this clinician-graded assessment, overall eyelash prominence was rated on a scale from 1 (minimal) to 4 (very marked). The two independently assessed scores for each photograph (1 from each evaluator) were averaged and the change from week 1 was calculated for each patient.
as §3

[4] = Open-label study: adverse events, periorbital darkening, biomicroscopy
Excerpt: as §1, §2
Health Outcomes Questionnaires. A questionnaire was used to track adverse events and to assess the subjects' satisfaction with treatment and their subjective evaluation of their eyelashes' appearance. Subjects were asked to answer all questions and return the questionnaire at weeks 4, 8, and 12. Subjects were also asked to respond verbally to 2 additional questions and their responses were recorded by site staff (FIGS. 1-4).

eyelashes [5] = experiment: Open-label study: health outcomes questionnaires and verbal responses
Excerpt: Subjects were instructed to apply bimatoprost 0.03% to the eyelid lash line once daily for 12 weeks using an applicator (Studio Basics Professional Tools Eye Applicators, Paris Presents Incorporated, Gumee, Ill.) for each upper eyelid each evening and, if necessary, to wipe the areas immediately around the eyelid afterward to remove excess medication. Periodic use of artificial tears was allowed, but only prior to administration of bimatoprost 0.03%. Health Outcomes Questionnaires. A questionnaire was used to track adverse events and to assess the subjects' satisfaction with treatment and their subjective evaluation of their eyelashes' appearance. Subjects were asked to answer all questions and return the questionnaire at weeks 4, 8, and 12. Subjects were also asked to respond verbally to 2 additional questions and their responses were recorded by site staff (FIGS. 1-4).

- Mean change from baseline in intraocular pressure across all weeks (per eye) ([1]; bimatoprost 0.03% once daily to eyelid lash line for 12 weeks, per eye): +0.98 to −0.81 mm Hg
- Mean change from baseline in intraocular pressure across all weeks (per subject) ([1]; bimatoprost 0.03% once daily to eyelid lash line for 12 weeks, per subject): +0.98 to −0.79 mm Hg
- Mean change from baseline intraocular pressure at each time point ([1]; each time point): less than 1 mm Hg
- Per-eye intraocular pressure change from baseline ([1]; week 1, P=0.0470): −0.81±2.72 mm Hg
- Per-eye intraocular pressure change from baseline ([1]; week 4, P=0.0412): 0.98±3.23
- Clinical significance of changes in intraocular pressure ([1]; within accepted variability of the test): not clinically significant
- Respondents answering yes to "Do your eyes sting or burn upon application?" (eyelashes [5]; week 4 (8/19)): 42.2%
- Respondents answering yes to "Do your eyes sting or burn upon application?" (eyelashes [5]; week 8 (6/18)): 33.3%
- Respondents answering yes to "Do your eyes sting or burn upon application?" (eyelashes [5]; week 12 (4/15)): 26.7%
- Respondents indicating yes at least once to sting or burn upon application (eyelashes [5]; weeks 4, 8, 12): 10 respondents
SMILES: CCNC(=O)CCC/C=C\C[C@@H]1[C@@H](/C=C/[C@@H](O)CCc2ccccc2)[C@H](O)C[C@@H]1O [bimatoprost]
- Subjects reporting conjunctival hyperemia as an adverse event ([2]; 5/137, 0.03% solution once daily for 4 months): 3.6%
- Overall safety and tolerability ([2]; healthy adult subjects): safe and well-tolerated
- Mean GEA score at week 1 (eyelashes [3]; 17 subjects with week-1 GEA scores of 1 or 2): 1.88±0.33
- Mean increase in GEA score at week 12 (eyelashes [3]; 17 subjects with week-1 GEA scores of 1 or 2, P<0.0001): 1.41±0.44
- Mean change in GEA score from week 1 to week 12 (eyelashes [3]; all 19 subjects, P<0.0001): 1.37±0.44
- Mean week-1 GEA score (eyelashes [3]; all 19 subjects, scale 1 to 4): 2.0±0.47
- Subjects rated GEA 2 (moderate) (eyelashes [3]; week 1 (15/19)): 79.0%
- Subjects rated GEA 3 (marked) or higher (eyelashes [3]; week 12 (18/19)): 94.7%
- Subjects Reported (n): Eye redness ([4]; Week 1 (n = 24)): 2
- Subjects Reported (n): Periorbital pigmentation changes ([4]; Week 1 (n = 24)): 0
- Subjects Reported (n): Possible brown eye shadow effect ([4]; Week 1 (n = 24)): 1
- Subjects Reported (n): Burning ([4]; Week 4 (n = 27)): 1
- Subjects Reported (n): Dryness and tightness ([4]; Week 4 (n = 27)): 1
- Subjects Reported (n): Eye redness ([4]; Week 4 (n = 27)): 4
- Subjects Reported (n): Mild itchiness ([4]; Week 4 (n = 27)): 3
- Subjects Reported (n): Periorbital pigmentation changes ([4]; Week 4 (n = 27)): 3
- Subjects Reported (n): Periorbital redness ([4]; Week 4 (n = 27)): 1
- Subjects Reported (n): Burning ([4]; Week 8 (n = 20)): 2
- Subjects Reported (n): Mild itchiness ([4]; Week 8 (n = 20)): 2
- Subjects Reported (n): Periorbital pigmentation changes ([4]; Week 8 (n = 20)): 1
- Subjects Reported (n): Redness and dryness ([4]; Week 8 (n = 20)): 1
- Subjects Reported (n): Dryness and darkening ([4]; Week 12 (n = 23)): 1
- Subjects Reported (n): Eye redness ([4]; Week 12 (n = 23)): 1
- Subjects Reported (n): Eyelid redness ([4]; Week 12 (n = 23)): 1
- Subjects Reported (n): Itching ([4]; Week 12 (n = 23)): 1
- Subjects Reported (n): Periorbital pigmentation changes ([4]; Week 12 (n = 23)): 3
- Subjects Reported (n): Red and sore ([4]; Week 12 (n = 23)): 1
- Hyperemia on biomicroscopy examination ([4]; any subject at any visit): not observed
- Subjects with periorbital darkening ([4]; during the course of the study, 28 subjects): 18%
- Subjects whose pigmentation changes were noted as possible, slight or a little ([4]; of 28 subjects): 11%
- Serious or unexpected adverse events ([4]; whole study): no serious or unexpected adverse events
- Subjects who noticed changes in eyelashes by week 12 (eyelashes [5]; 16 respondents at week 12): 3 subjects
- Subjects who noticed changes in eyelashes within the first month (eyelashes [5]; 16 respondents at week 12): 3 subjects
- Subjects who noticed changes in eyelashes within the first week (eyelashes [5]; 16 respondents at week 12): One
- Respondents who had started to notice changes in their eyelashes by week 8 (eyelashes [5]; 16 respondents at week 12 (9/16)): 56.3%
- Respondents indicating eyelashes were "improved" or "much improved" (eyelashes [5]; by week 12, all respondents): 16 respondents
- Respondents agreeing "very much/much" that they had done something positive for their appearance (eyelashes [5]; week 12 (12/16)): 75%
- Respondents agreeing "very much/much" that the treatment was helpful (eyelashes [5]; week 12 (15/16)): 94%
- Subjects indicating both longer and thicker (eyelashes [5]; week 12, 16 respondents): 1 subject
- Subjects reporting all 3 options, longer, thicker, and darker (eyelashes [5]; week 12, 16 respondents): 3 subjects
- Respondents choosing "longer" as the eyelash change they noticed most (eyelashes [5]; week 12, Twelve of the 16 respondents): 81.3%
- Respondents who had noticed growth or darkening of their eyelashes (verbal question) (eyelashes [5]; week 12, all 23 respondents): 100%
